{"source": "patent US5087726A", "about": "“Carbamate ACAT inhibitors” (Warner-Lambert Company, priority 1990, dated 1992)", "target": "T1, acyl-CoA:cholesterol acyltransferase (ACAT) (Oryctolagus cuniculus, UniProt G1SFD9)", "T1 construct": "tissue preparation containing rabbit intestinal microsomes; from tissue; host or cells: rabbit intestinal microsomes", "T1 sequence (G1SFD9 1-524)": "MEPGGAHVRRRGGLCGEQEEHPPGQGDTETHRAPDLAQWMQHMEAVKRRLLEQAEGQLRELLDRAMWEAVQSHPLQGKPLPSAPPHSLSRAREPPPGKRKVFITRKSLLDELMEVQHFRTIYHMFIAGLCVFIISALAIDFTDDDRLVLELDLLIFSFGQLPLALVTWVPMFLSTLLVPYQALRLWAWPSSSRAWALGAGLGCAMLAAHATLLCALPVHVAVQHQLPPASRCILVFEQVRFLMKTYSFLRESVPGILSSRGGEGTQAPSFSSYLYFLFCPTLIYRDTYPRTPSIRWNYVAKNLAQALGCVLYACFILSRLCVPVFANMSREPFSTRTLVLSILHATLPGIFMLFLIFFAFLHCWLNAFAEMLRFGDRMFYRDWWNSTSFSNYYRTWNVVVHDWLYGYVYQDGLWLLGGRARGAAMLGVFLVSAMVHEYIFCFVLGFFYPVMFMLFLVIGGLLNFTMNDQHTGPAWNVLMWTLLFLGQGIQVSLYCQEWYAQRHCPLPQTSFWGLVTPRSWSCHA", "assay": "in vitro ACAT inhibition: radiolabeled cholesterol oleate formed from radiolabeled oleic acid in rabbit intestinal microsomes", "type": "biochemical", "details": "tissue preparation containing rabbit intestinal microsomes; read-out: IC50 value, i.e. the concentration of test compound required to inhibit 50% expression of the enzyme", "method": "The ability of representative compounds of the present invention to inhibit ACAT was measured using an in vitro test more fully described in Field, F. J. and Salone, R. G., Biochemica et Biophysica 712: 557-570 (1982). The test assesses the ability of a test compound to inhibit the acylation of cholesterol by oleic acid by measuring the amount of radiolabeled cholesterol oleate formed from radiolabeled oleic acid in a tissue preparation containing rabbit intestinal microsomes.", "data": [{"smiles": "CCCCCCCCCCCC(=O)N[C@@H](CNC(=O)Oc1c(C(C)C)cccc1C(C)C)c1ccccc1", "note": "[Example 1]", "values": [{"measurement": "IC50", "result": 0.51, "unit": "nM"}]}]}
